# Test results taken from patent US20040102525A1, “Compositions and methods of treating neurological disease and providing neuroprotection” (priority 2002, published 2004).
# What was measured:
# [1] = multiple sclerosis patients; cited from earlier work
# [2] = healthy subjects; cited from earlier work
# [3] = acute, sub-anesthetic doses, normal subjects; cited from earlier work
# [4] = lesions of the entorhinal cortex; cited from earlier work
# [5] = in vivo; cited from earlier work
# [6] = in vivo; cited from earlier work; remark: listed apart in the source
# [7] = test system: hippocampal slices; details: cited from earlier work
# [8] = rats with experimental acute liver failure; cited from earlier work
# [9] = cited from earlier work
# [10] = test system: NR2C and NR2D subunits; details: cited from earlier work
# [11] = parallel treatment with memantine and 3-NP; cited from earlier work
# [12] = test system: inner hair cell afferents; details: animal models; cited from earlier work
# [13] = animals studies; cited from earlier work
# [14] = one patient; metabolic deficits by PET not totally reversed; cited from earlier work
# [15] = target: NR1A/2B (Homo sapiens, UniProt Q05586+Q13224); details: cited from earlier work
# Chain of NR1A/2B (Q13224 27-1484, other chains not shown): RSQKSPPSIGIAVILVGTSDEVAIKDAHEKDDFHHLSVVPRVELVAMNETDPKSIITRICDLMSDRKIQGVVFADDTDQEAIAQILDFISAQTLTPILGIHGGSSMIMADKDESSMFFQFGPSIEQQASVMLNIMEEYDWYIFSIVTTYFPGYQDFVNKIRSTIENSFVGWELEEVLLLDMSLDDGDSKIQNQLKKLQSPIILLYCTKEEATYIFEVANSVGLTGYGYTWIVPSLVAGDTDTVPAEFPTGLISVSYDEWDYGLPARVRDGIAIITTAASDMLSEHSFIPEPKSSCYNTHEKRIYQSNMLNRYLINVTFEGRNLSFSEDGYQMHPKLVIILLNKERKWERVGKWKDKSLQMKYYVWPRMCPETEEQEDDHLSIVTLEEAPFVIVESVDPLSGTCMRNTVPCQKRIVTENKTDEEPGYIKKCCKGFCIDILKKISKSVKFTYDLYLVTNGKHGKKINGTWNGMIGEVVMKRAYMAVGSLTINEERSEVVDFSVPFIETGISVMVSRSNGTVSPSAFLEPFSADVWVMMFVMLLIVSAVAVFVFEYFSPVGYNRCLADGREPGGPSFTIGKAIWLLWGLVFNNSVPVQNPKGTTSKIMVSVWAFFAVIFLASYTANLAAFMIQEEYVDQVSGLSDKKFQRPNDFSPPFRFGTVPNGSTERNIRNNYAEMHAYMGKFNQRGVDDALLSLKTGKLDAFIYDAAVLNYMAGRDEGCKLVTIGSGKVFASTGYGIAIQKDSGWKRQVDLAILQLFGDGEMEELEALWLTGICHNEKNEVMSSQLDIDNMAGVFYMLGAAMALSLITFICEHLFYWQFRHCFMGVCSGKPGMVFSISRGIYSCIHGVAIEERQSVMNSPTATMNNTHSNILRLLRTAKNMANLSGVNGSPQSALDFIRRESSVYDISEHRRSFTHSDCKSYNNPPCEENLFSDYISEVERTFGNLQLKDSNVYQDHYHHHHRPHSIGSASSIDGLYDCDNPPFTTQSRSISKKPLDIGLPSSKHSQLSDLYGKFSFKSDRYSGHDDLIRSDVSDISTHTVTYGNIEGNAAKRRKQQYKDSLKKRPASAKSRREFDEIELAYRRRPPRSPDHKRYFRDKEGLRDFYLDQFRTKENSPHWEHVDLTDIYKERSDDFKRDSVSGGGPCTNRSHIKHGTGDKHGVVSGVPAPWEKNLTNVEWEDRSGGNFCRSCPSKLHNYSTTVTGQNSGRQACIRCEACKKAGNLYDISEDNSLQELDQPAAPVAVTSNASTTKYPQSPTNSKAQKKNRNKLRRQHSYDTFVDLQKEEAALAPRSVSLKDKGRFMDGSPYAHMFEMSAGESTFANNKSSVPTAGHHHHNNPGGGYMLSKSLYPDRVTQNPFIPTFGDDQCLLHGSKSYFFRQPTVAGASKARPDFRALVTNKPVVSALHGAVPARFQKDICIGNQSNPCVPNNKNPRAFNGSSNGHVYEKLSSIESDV
# [16] = cited from earlier work; remark: listed apart in the source
# [17] = up to 2 hours after induction of hypoxia/ischemia, immature and adult rats; cited from earlier work
# [18] = test system: neuronal ganglion cell; details: administered 4 hours after NMDA neurotoxicity; cited from earlier work
# [19] = Tinnitus patient treated with chronic oral memantine; format: in vivo, human; details: first patient in the USA, category I tinnitus, chronic oral 10 mg BID
# Excerpt: The efficacy of current therapy for tinnitus is controversial but includes devices that mask tinnitus and TRT (tinnitus retraining therapy) which is a technique utilizing white noise for a period of time to assist the patient to habituate to their tinnitus. […] We postulate that the administration of memantine would attenuate the neurotoxicity mechanisms of cochlear disorders and tinnitus, and also attenuate any abnormal neuronal plasticity in the temporal-parietal association cortex resulting in clinical efficacy for the treatment of tinnitus.
# [20] = test system: D2, AMPA, kainate, alpha 1, alpha 2, and 5-HT re-uptake; details: alpha 1, alpha 2, 5-HT re-uptake; cited from earlier work
# [21] = test system: glutamate secreting tumors; details: 25 mg/kg IP; cited from earlier work
# [22] = test system: cortical cell cultures; details: cited from earlier work
# [23] = moderate and severe Alzheimer's disease; cited from earlier work
# [24] = pre- or posttreatment, 20 mg/kg IP (von Euler, 1997); cited from earlier work
# [25] = test system: GABA or AMPA receptors; details: cited from earlier work
# [26] = test system: L- and N type voltage-activated calcium channels, Na+ channels; details: cited from earlier work
# [27] = test system: BDNF mRNA; details: rat limbic system; cited from earlier work
# [28] = animal studies; cited from earlier work
# [29] = test system: tumor cells including lung, rhabdomyosarcoma, medulloblastoma, and thyroid adenocarcinoma; details: cited from earlier work
# [30] = cited from earlier work; remark: listed apart in the source
# [31] = EAE (Wallstrom, 1996); cited from earlier work
# [32] = in vivo; cited from earlier work; remark: listed apart in the source
# [33] = rat, brain microdialysis with in vivo recovery; cited from earlier work
# [34] = target: NR2A of the NMDA receptor (Homo sapiens, UniProt Q05586+Q12879); details: cited from earlier work
# Chain of NR2A of the NMDA receptor (Q12879 23-1464, other chains not shown): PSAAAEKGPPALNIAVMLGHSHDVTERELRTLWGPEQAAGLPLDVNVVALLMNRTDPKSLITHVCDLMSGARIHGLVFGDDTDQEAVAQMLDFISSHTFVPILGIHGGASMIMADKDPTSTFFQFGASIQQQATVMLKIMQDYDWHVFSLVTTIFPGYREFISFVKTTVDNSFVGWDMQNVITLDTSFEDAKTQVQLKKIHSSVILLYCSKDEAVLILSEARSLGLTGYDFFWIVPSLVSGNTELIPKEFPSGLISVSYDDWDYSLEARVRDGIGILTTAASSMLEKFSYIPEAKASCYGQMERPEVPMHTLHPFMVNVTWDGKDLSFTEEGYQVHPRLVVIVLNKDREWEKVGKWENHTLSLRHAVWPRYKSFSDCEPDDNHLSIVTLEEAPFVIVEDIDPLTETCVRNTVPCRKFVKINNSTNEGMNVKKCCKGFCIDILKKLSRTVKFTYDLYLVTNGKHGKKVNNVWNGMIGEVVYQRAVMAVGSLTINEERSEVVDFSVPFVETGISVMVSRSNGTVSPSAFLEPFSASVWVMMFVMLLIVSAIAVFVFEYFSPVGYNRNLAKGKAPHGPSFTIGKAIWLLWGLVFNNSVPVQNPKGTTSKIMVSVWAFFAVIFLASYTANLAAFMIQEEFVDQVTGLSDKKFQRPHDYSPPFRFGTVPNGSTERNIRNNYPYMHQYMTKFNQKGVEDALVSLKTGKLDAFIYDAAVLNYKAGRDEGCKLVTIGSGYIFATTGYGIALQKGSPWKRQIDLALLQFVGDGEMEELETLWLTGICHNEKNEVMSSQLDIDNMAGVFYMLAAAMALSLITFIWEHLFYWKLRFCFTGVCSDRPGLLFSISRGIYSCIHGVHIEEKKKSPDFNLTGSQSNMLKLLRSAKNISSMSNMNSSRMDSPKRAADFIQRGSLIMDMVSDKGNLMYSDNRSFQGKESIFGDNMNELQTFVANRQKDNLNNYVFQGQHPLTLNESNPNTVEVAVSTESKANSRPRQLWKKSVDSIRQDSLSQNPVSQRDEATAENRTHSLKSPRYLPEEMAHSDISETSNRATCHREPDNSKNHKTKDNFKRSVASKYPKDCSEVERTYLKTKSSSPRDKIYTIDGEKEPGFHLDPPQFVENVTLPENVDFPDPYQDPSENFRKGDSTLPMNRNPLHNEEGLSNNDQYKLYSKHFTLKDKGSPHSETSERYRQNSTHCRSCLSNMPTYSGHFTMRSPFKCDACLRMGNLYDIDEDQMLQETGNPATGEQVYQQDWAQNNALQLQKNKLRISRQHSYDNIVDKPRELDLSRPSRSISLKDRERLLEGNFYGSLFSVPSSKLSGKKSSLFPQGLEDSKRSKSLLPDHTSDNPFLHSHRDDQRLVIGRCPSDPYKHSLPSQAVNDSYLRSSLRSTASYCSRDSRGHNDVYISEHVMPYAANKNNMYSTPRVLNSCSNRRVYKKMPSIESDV
# [35] = rat, in vivo; cited from earlier work
# [36] = test system: NMDA receptor; details: cited from earlier work
# [37] = following nerve injury; cited from earlier work
# [38] = cited from earlier work; remark: listed apart in the source
# [39] = rat, in vivo; cited from earlier work; remark: listed apart in the source
# [40] = injected directly into the VNC prior to UVD; cited from earlier work
# [41] = test system: neurons; details: cited from earlier work
# [42] = test system: NMDA receptors; details: perfused, ventilated rat lungs; cited from earlier work
# [43] = test system: osteoblasts; details: cited from earlier work
smiles,measurement,setting,value
NCC1(CC(=O)O)CCCCC1 [gabapentin],treatment of APN,[1],efficacy
CNC1(c2ccccc2Cl)CCCCC1=O (stereo not shown) [ketamine],smooth pursuit of eye movements,[2],deficits in smooth pursuit of eye movements
same,memory,[3],delayed memory recall and decreases in verbal and nonverbal memory
"CC12CC3CC(C)(C1)CC(N)(C3)C2.Cl [memantine, 1-amino-3,5-dimethyl-adamantane hydrochloride]",time to normalized learning,[4],≤ 8 days
same,time to reversal of learning impairment,[4],≤ 3 days
same,placental penetration,[5],good placental penetration
same,teratogenesis,[5],minimal teratogenesis
same,toxicity to the fetus,[5],non-toxic properties to the fetus
same,efficacy as an anti-convulsant or in epilepsy,[6],minimal efficacy
same,effect on LTP in hippocampal slices,[7]; 6-10 μM,do not attenuate LTP
same,increase of the CA1 pyramidal cell spike,[7]; in vitro,100%
same,synaptic functioning after removal of Mg++,[7]; relevant human brain concentrations (1-μM),normalized synaptic functioning
same,neurological status,[8],significant improvement
same,TTP (time-to-peak concentration),[9]; after oral intake,6 to 8 h
same,decrease of CSF (cerebrospinal fluid) concentration,[9]; due to albumin binding,20-50%
same,CSF concentrations lower (CSF sampling),[9]; human subjects,30-40%
same,serum levels,"[9]; humans, 20 mg per day",0.5 to 1.0 µM
same,blood brain barrier penetration,[9]; in vivo,easily penetrates the blood brain barrier
same,plasma clearance half-life (t1/2),[9]; in vivo,60 to 100 h
same,protein binding,[9]; in vivo,42-45%
same,time to steady-state plasma levels,[9]; in vivo,approximately 21 days
same,absorption from the gastrointestinal tract,[9]; oral,completely absorbed
same,plasma levels,[9]; patients treated with 10-30 mg per day,0.4 to 1.0 µM
same,block of NR2C and NR2D subunits,[10],preferentially blocks
same,enhanced neuronal density drop-out in the striatum,[11],26%
same,reduction in volume in the striatum,[11],11.5%
same,NMDA stimulated activity of inner hair cell afferents,[12],selectively inhibit
same,"induction of HSP, neuronal vacuolization and necrosis",[13],No induction of HSP (heat shock protein) or neuronal vacuolization and necrosis
same,cognitive effects in alcoholic dementia,[14],reversed cognitive effects
same,potency at NR1A/2B,[15],intermediate potency
same,"hippocampal damage, convulsions and cell death induced by ICV QUIN",[16]; in vivo,"prevents hippocampal damage, convulsions and cell death"
same,memory deficits by chronic ICV infusion of QUIN,[16]; simultaneous infusion of memantine,blocked
same,infarct size,[17],significantly reduce infarct size
same,neuronal ganglion cell death,[18],prevention of neuronal ganglion cell death
same,response of tinnitus,[19],successfully treated
same,concentrations at which memantine interacts with multiple receptors,[20],greater than 100 μM
same,decrease of tumor volume,[21],25%
same,tumor expansion facilitated by glutamate secretion,[21],blocked
same,apoptosis induced by gp120,[22],prevention of apoptosis
same,rate of cognitive decline,[23],efficacy in decreasing the rate of cognitive decline
same,neurological or morphological outcome,[24],failed to attenuate
same,effect on GABA or AMPA receptors,[25],no effect
same,"antagonism at L- and N type voltage-activated calcium channels, Na+ channels",[26],weak antagonist
same,treatment of APN,[1],efficacy
same,BDNF mRNA levels,[27],increased BDNF mRNA levels
same,eliminating symptoms of drug withdrawal and addiction,[28],conflicting and usually negative
same,growth of brain and systemic glutamate secreting tumors,[29]; in vitro,slow the growth
same,in vitro proliferation of tumor cells,"[29]; lung, rhabdomyosarcoma, medulloblastoma, thyroid adenocarcinoma",decrease in vitro proliferation
same,levels at which in vitro proliferation was decreased,[29]; unobtainable at therapeutic human doses,100 μM/ml
same,drug interaction with AchE (acetylcholinesterase inhibitors),[30]; combined with AchE inhibitors,no adverse drug interaction
same,adverse events,[30]; dose-related,"nausea, dizziness, and restlessness"
same,hepatic toxicity,"[30]; human, in vivo",minimal hepatic toxicity
same,patients with headache as adverse event,"[30]; patients who do not suffer from migraine, mild, usually transitory, dose related",up to 10%
same,"effect on CNS inflammation, IFN-γ, lymphocytic proliferation, systemic immunity",[31],failed to have any effect
same,therapeutic concentration that produces efficacy in Parkinson's disease,[32],less than 2 μM
same,free brain concentrations lower,[33],20-30%
same,effects at NR2A,[34],weak effects
same,lesions of the NBM produced by mitochondrial toxins (3-NP),[35],inhibited
same,striatal lesions by malonate,[35],significantly attenuated
same,NMDA channels left unblocked,[36],20%
same,levels at which action is specific for antagonism of the NMDA receptor,[36]; does not affect other ligand-gated or voltage-gated channels,1 to 10 µM
C[C@]12N[C@H](Cc3ccccc31)c1ccccc12 [MK-801],motorneurone death,[37],reduced motorneurone death
same,increased airway perfusion pressure produced by NMDA,[38]; NMDA,abolished
same,acute elevation in airway perfusion pressure by capsaicin,[38]; capsaicin,attenuated in both magnitude and duration
same,cortical spreading after infarction,[39],able to inhibit cortical spreading
same,hyperexcitability after infarction,[39],unable to reverse the hyperexcitability
same,"severity of the vestibular syndrome (SON, YHT)",[40],reduced the severity of the vestibular syndrome
same,neuronal loss by neurotoxic concentrations of glutamate,[41],attenuated the neuronal loss
same,pulmonary injury by NMDA receptor activation,[42],prevented
same,inward currents in response to NMDA agonist stimulation,[43],significant decrease in inward currents
